Nine compounds from patent US5719287A, “Intermediates for inhibitors of HIV protease and method of preparation thereof” (Eli Lilly and Company, priority 1995, dated 1998) can be followed below.

For assay [1], the target named is T1, HIV-1 protease (Human immunodeficiency virus type 1 group M subtype B, UniProt P04585).
T1 construct: Purified HIV-1 protease was obtained as described below; made in house; host or cells: E. coli K12 L507/pHP10D (NRRL B-18560)
The experiment in a line: biochemical. To be noted: read-out: Fluorescence Assay IC50 (converted). The procedure, abridged: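 Purified recombinant HIV-1 protease from E. coli preincubated 1 h at room temperature with compound in 20% aqueous DMSO, then biotin-peptide-FITC substrate added in MES-ALB buffer for 16 h at room temperature. Cleavage measured by avidin-bead capture, fluorescence ex 485/em 535 nm.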

For assay [2], the target named is T1, HIV-1 protease. The experiment in a line: Western Blot Analysis of HIV Protease Inhibition Assay (HIV-1 protease produced in E. coli, processing of gag polyprotein Pr48^gag). Type of assay: biochemical. To be noted: yield of p17 from gag polyprotein; 30 min preincubation at room temperature, one hour at 37° C. The method, then:
The compounds of the present invention were also tested for their ability to block HIV protease processing of Pr48^gag (a recombinant polyprotein containing p 17, p24 and p7).
A. Culture of E. coli K12 L507/DHP10D
Lyophils of E. coli K12 L507/pHP10D are obtained from the Northern Regional Research Laboratory, Peoria, Ill. 61604, under the accession number NRRL B-18560 (deposited Nov. 14, 1989). The lyophils are decanted into tubes containing 10 ml LB medium (10 g Bacto-tryptone, 5 g Bacto-yeast extract, and 10 g NaCl per liter; pH is adjusted to 7.5) and incubated at 32° C., overnight.
A small portion of the overnight culture was placed on LB-agar (LB medium with 15 g/l Bacto-agar) plates containing 12.5 μg/ml tetracycline in a manner so as to obtain a single colony isolate of E. coli K12 L507/pHP10D.The single colony obtained was inoculated into 10 ml of LB medium containing 12.5 μg/ml tetracycline and incubated overnight at 32° C. with vigorous shaking. The 10 ml overnight culture was inoculated into LB medium containing 12.5 μg/ml tetracycline and incubated at 32° C. with vigorous shaking until the culture reached mid-log phase.
B. Culture of E. coli K12 L507/pHGAG
Lyophils of E. coli K12 L507/pHGAG are obtained from the NRRL under the accession number NRRL B-18561 (deposited Nov. 14, 1989). A purified colony of E. coli K 12 L507/pHGAG was isolated, and used as an inoculum for a culture which was grown to mid-log phase in substantial accordance with the teaching of Step A above for E. Coli K12 L507/pHP10D.
C. Preparation of Protease and gag fractions
A culture of E. coli K12 L507/pHP10D was grown to mid-log phase at 32° C. in LB media containing 12.5 μg/ml tetracycline. The cultivation temperature was quickly elevated to 40° C. to induce gene expression, and the cells were allowed to grow for 2.5 hours at this temperature before the culture was quickly chilled on ice. The cells were centrifuged and the cell pellet was resuspended in 20 ml 50 mmol MES buffer (pH 6.0) containing 1 mmol EDTA, 1 mmol DTT, 1 mmol PMSF, and 10% glycerol (Buffer A). Cells were lysed by sonication using a Fischer Model 300 Dismembrator and a microtip probe. […] Enzymatic activity was measured by HPLC using the synthetic peptide SQNYPIV as described in Margolin et al., Biochem. Biophys. Res. Commun., 167, 554-560 (1990); the production of the pl peptide (SQNY) was measured.
Active fractions were pooled, made 1.2M in ammonium sulfate, and applied to a hexyl agarose column (2.0×18 cm) equilibrated in Buffer A containing 1.2M ammonium sulfate. The sample, in 125 ml (1.85 mg/ml), was loaded at a flow rate of 1 ml/min at 4° C. […] The column was then washed isocratically in Buffer A for 120 min. Active fractions were pooled, concentrated to 10 ml using an Amicon stirred cell with a YM-10 membrane, and applied at 1 ml/min to a MonoS cation exchange column (1.0×10 cm) equilibrated in Buffer A. After washing isocratically for 30 min, protease was eluted using a linear gradient of 0-0.45M NaCl in Buffer A over 40 min followed by an isocratic wash with Buffer A containing 0.45M NaCl over 30 min. Chromatography was performed at 25° C.
Pooled active fractions were concentrated to 200 ul using an Amicon stirred cell and a YM-10 membrane, and the protease was then applied to a Superose 6 size exclusion column equilibrated in Buffer A containing 0.1M NaCl. The column was washed isocratically in this buffer at a flow rate of 0.5 ml/min.
QAE-Sepharose, and hexyl agarose were purchased from Sigma Chemical Company. Superose 6 and MonoS were products of Pharmacia. Buffers and reagents were obtained from Sigma.
In an analogous manner, a culture of E. coli K12 507/pHGAG was grown to mid-log phase at 32° C. then shifted to 40° C. for about 4 to 5 hours. The culture was chilled on ice and centrifuged, then the pellet was resuspended in 8 ml lysis buffer containing 5 mg/ml lysozyme.
On the technique in general: In western blotting, separated proteins are transferred to a membrane and probed.

Setting [3] is: purified HIV-1 protease, MES-ALB buffer pH 5.5, 1 h preincubation, 16 h with substrate, room temperature, IC50 values for Examples 2-70 are standardized relative to Ex 1.

For orientation: IC50 means the concentration that inhibits the measured activity by half. For `Cc1ccc(C[C@@H](O)[C@H](Cc2ccccc2)NC(=O)[C@H](CC(N)=O)NC(=O)c2ccc3ccccc3n2)c(C(=O)NC(C)(C)C)c1` [Example 2, [1S-(1R*, 4R*, 5S*)]-N-(1-(2-amino-2-oxoethyl)-2-oxo-3-aza-4-phenylmethyl-5-hydroxy-6-(2-(1-t-butylamino-1-oxomethyl)-4-methylphenyl)hexyl)-2-quinolinyl carboxamide], the IC50 was 3.37 nM in assay [1] (setting [3]) and 50 nM in assay [2].
As for `Cc1cccc(C[C@@H](O)[C@H](Cc2ccccc2)NC(=O)[C@H](CC(N)=O)NC(=O)c2ccc3ccccc3n2)c1C(=O)NC(C)(C)C` [Example 3, [1S-(1R*, 4R*, 5S*)]-N-(1-(2-amino-2-oxoethyl)-2-oxo-3-aza-4-phenylmethyl-5-hydroxy-6-(2-(1-t-butylamino-1-oxomethyl)-3-methylphenyl)hexyl)-2-quinolinyl carboxamide], the half-inhibitory concentration (IC50) in assay [1] is 28.9 nM; in assay [2], 60 nM.
In the case of `CC(C)(C)NC(=O)c1c(C[C@@H](O)[C@H](Cc2ccccc2)NC(=O)[C@H](CC(N)=O)NC(=O)c2ccc3ccccc3n2)ccc2ccccc12` [Example 4, [1S-(1R*, 4R*, 5S*)]-N-(1-(2-amino-2-oxoethyl)-2-oxo-3-aza-4-phenylmethyl-5-hydroxy-6-(1-(1-t-butylamino-1-oxomethyl)-2-naphthyl)hexyl)-2-quinolinyl carboxamide], the results for the IC50 in assay [1] and in assay [2] were 4.4 nM and 2.7 nM, respectively.
Take `CCC(C)(C)NC(=O)c1ccccc1C[C@@H](O)[C@H](Cc1ccccc1)NC(=O)[C@H](CC(N)=O)NC(=O)c1ccc2ccccc2n1` [Example 8, [1S-(1R*, 4R*, 5S*)]-N-(1-(2-amino-2-oxoethyl)-2-oxo-3-aza-4-phenylmethyl-5-hydroxy-6-(2-(1-(1.1-dimethylpropylamino)-1-oxomethyl)phenyl)hexyl)-2-quinolinyl carboxamide]: the IC50 in assay [1] is 4.81 nM; in assay [2] it was 1.5 nM.
Regarding `CC(C)(C)NC(=O)c1ccccc1C[C@@H](O)[C@H](Cc1ccccc1)NC(=O)[C@H](CC(N)=O)NC(=O)c1nccc2ccccc12` [Example 13], the concentration for half-maximal inhibition (IC50) in assay [1] (setting [3]) was 13.1 nM; in assay [2], 9 nM.
Consider `CC(C)(C)NC(=O)c1ccccc1C[C@@H](O)[C@H](Cc1ccccc1)NC(=O)[C@H](CC(N)=O)NC(=O)c1nc2ccccc2[nH]1` [Example 14, [1S-(1R*, 4R*, 5S*)]-N-(1-(2-amino-2-oxoethyl)-2-oxo-3-aza-4-phenylmethyl-5-hydroxy-6-(2-(1-t-butylamino-1-oxomethyl)phenyl)hexyl)-2-benzimidazolyl carboxamide], for which the figures for the IC50 in assay [1] and in assay [2] were 142 nM and 100 nM, respectively.
As to `CC(C)(C)NC(=O)c1ccccc1C[C@@H](O)[C@H](Cc1ccccc1)NC(=O)[C@H](CC(N)=O)NC(=O)COc1cccc2ccccc12` [Example 15, [2R-(2R*, 3S*, 6S*)]-N-t-butyl-2-(2-hydroxy-3-phenylmethyl-4,7-diaza-5,8,-dioxo-6-(2-amino-2-oxoethyl)-9-(naphthyloxy)nonyl)benzamide], the 50% inhibitory concentration (IC50) in assay [1] (setting [3]) is 4.23 nM; in assay [2] it was 1.6 nM.
As to `CC(C)[C@H](NC(=O)c1ccc2ccccc2n1)C(=O)N[C@@H](Cc1ccccc1)[C@H](O)Cc1ccccc1C(=O)NC(C)(C)C` [Example 16, [1S-(1R*, 4R*, 5S*)]-N-(1-(2-propyl)-2-oxo-3-aza-4-phenylmethyl-5-hydroxy-6-(2-(1-t-butylamino-1-oxomethyl)phenyl)hexyl)-2-quinolinyl carboxamide], the values for the IC50 in assay [1] and in assay [2] were 57.2 nM and 1 nM, respectively.
Regarding `CC(C)(C)NC(=O)c1ccccc1C[C@@H](O)[C@H](Cc1ccccc1)NC(=O)[C@H](Cc1cnc[nH]1)NC(=O)c1ccc2ccccc2n1` [Example 17, [1S-(1R*, 4R*. 5S*)]-N-(1-(4-imidazolylmethyl)-2-oxo-3-aza-4-phenylmethyl-5-hydroxy-6-(2-(1-t-butylamino-1-oxomethyl)phenyl)hexyl)-2-quinolinyl carboxamide], the results for the concentration for half-maximal inhibition (IC50) in assay [1] and in assay [2] were 1.9 nM and 0.5 nM, respectively.
